Assay results published in patent US5668165A, “Small molecule inhibition of RNA/ligand binding” (Scriptgen Pharmaceuticals, Inc., priority 1995, dated 1997).
“Also recorded” adds a separate entry of the source. Where two headings read alike, the source gives them in different places. Starred links: 1 amine or outer side, 2 acyl side, 3 side chain; linkers in the order of their positions; H or OH if unused. Positions of bridges follow the written chain, without caps; N, C: chain ends. Non-standard residues stand in square brackets, D forms with d. Residues, ends and D or L forms follow the SMILES beside them. *: point of attachment. X1 = NC1=N[C@@H]([C@H](N[*:1])C(=O)[*:2])C[C@H](O)N1; ΔAla(Z-3-ureido) = NC(=O)N/C=C(\N)C(=O)O; β3hOrn = NCCC[C@H](N)CC(=O)*; Dap = NC[C@H](N)C(=O)O

Tests used:
[1] = target: T1, binding of HIV Rev protein to the HIV RRE (Human immunodeficiency virus type 1 group M subtype B, UniProt P04618); assay: Rev-RRE nitrocellulose filter-binding assay
T1 construct: made in house; host or cells: E. coli
Protocol: A 69-nt ^32 P-labelled RNA probe containing a high affinity Rev-binding site (Bartel et al., Cell 67:529, 1991 ) was incubated with purified E. coli-derived Rev protein in the absence and presence of increasing concentrations of Compound 15. Reactions conditions were those that maximize the specificity of the interaction between Rev and the RRE, i.e., 150 mM KCl and a 100-fold molar excess of tRNA.
After a 30-minute incubation at room temperature, a nitrocellulose filter-binding assay was performed to quantify the binding of Rev to the RRE (Daly et al., Biochem. 32:10497, 1993). In this assay, RNA is retained on the filter only by virtue of binding to Rev. Filter-associated radioactivity was quantified in a Wallac Microbeta counter. The fraction of input RNA retained on the filter was plotted as a function of Compound 15 concentration, and the IC50 (the concentration required to inhibit 50% Rev-RRE binding) was determined by linear regression.

[2] = test system: binding of Rev to the RRE (67-nt RNA probe containing a high affinity Rev-binding site); set-up: species or system HIV; details: for concentration at which inhibitory to Rev binding: third group of aminoglycosides; for inhibiting the binding of Rev to the RRE: Rev/RRE binding inhibition assay, summary of thirteen 2-DOS aminoglycosides; for ability to inhibit Rev binding (inhibitory at any concentration tested): 67-nt 32P-labeled RNA probe, gel mobility shift
Protocol: To test whether antibiotics can block binding of Rev to the RRE, a 67-nt ^32 P-labeled RNA probe containing a high affinity Rev-binding site was incubated with purified E. coli derived Rev protein in the presence of various antibiotics. Binding of Rev to the RNA probe was quanitified by an RNA gel mobility shift assay.

[3] = Table 2, 2,5-Bis(3-amidinophenyl)furans, read-out: IC50 against Rev/RRE binding
[4] = Table 3, 2,5-Bis(3-bisamidinophenyl)thiophene
[5] = Table 3, 2,5-Bis(3-bisamidinophenyl)thiophene, read-out: IC50 against Rev/RRE binding

T1 sequence (P04618 whole entry, looked up): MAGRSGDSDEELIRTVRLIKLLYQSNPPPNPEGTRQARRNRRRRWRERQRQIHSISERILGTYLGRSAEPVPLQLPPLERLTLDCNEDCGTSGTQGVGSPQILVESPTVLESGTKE

`CN(C)CCCNC(=N)c1cccc(-c2ccc(-c3cccc(C(=N)NCCCN(C)C)c3)o2)c1` [Example 15, 2,5-Bis [3-(3-N,N-dimethylaminopropylamidino)phenyl]furan] gave an IC50 ([1]; FIG. 2, 150 mM KCl, 100-fold molar excess of tRNA, read-out: IC50 (concentration required to inhibit 50% Rev-RRE binding)) of 1000 nM.
`CCN(CC)CCCNC(=N)c1cccc(-c2ccc(-c3cccc(C(=N)NCCCN(CC)CC)c3)o2)c1` [Example 16, 2,5-Bis[3-N,N-diethylaminopropylamidinophenyl]furan] gave an IC50 [1, 3] of 750 nM.
`CN(C)CCCCNC(=N)c1cccc(-c2ccc(-c3cccc(C(=N)NCCCCN(C)C)c3)o2)c1` [Example 17, 2,5-Bis[3-(4-N,N-dimethylaminobutyl-amidino)phenyl]furan] gave an IC50 [1, 3] of 1700 nM.
Work on `CN(C)CCCCCCNC(=N)c1cccc(-c2ccc(-c3cccc(C(=N)NCCCCCCN(C)C)c3)o2)c1` [Example 18, 2,5-Bis[3-(6-N,N-dimethylaminohexylamidino)phenyl]furan] yielded an IC50 [1, 3] of 3900 nM.
`c1cc(C2=NCCN2)cc(-c2ccc(-c3cccc(C4=NCCN4)c3)o2)c1` [Example 19, 2,5-Bis(3-imidazolinophenyl)furan] gave an IC50 [1, 3] of 4000 nM.
With `N=C(NCc1cccnc1)c1cccc(-c2ccc(-c3cccc(C(=N)NCc4cccnc4)c3)s2)c1` [Example 20, 2,5-Bis[3-pyridylmethylamidinophenyl]thiophene] the “IC50 against Rev/RRE binding” value [1, 4] was “not active”.
With `CN1CCCC1CCNC(=N)c1cccc(-c2ccc(-c3cccc(C(=N)NCCC4CCCN4C)c3)s2)c1` (stereo not drawn) [Example 21, 2,5-Bis{3-[2-(1-methyl-2-pyrrolidinyl)ethylamidino]phenyl}thiophene] the IC50 [1, 5] was 2400 nM.
Compound `CCN(CC)CCCNC(=N)c1cccc(-c2ccc(-c3cccc(C(=N)NCCCN(CC)CC)c3)s2)c1` [Example 22, 2,5-Bis-[3-(3-N,N-diethylaminopropyl-amidino)phenyl]thiophene] has an IC50 [1, 5] of 2800 nM.
In the case of `N=C(NCCN1CCCC1)c1cccc(-c2ccc(-c3cccc(C(=N)NCCN4CCCC4)c3)s2)c1` [Example 23, 2,5-Bis[3-(2-pyrrolidinoethylamidino)phenyl]thiophene], the “IC50 against Rev/RRE binding” value [1, 4] is reported as “not active”.
For `NCC[C@H](O)C(=O)N[C@@H]1C[C@H](N)[C@@H](O[C@H]2O[C@H](CN)[C@@H](O)[C@H](O)[C@H]2O)[C@H](O)[C@H]1O[C@H]1O[C@H](CO)[C@@H](O)[C@H](N)[C@H]1O` [amikacin], the “concentration at which inhibitory to Rev binding” value (“concentration at which inhibitory” below) ([2]; 67-nt RNA probe) was 100 μm and the “inhibiting the binding of Rev to the RRE” value [2] was “effective”.
With `CC1(C)S[C@@H]2[C@H](NC(=O)[C@H](N)c3ccccc3)C(=O)N2[C@H]1C(=O)O` [ampicilin] the “ability to inhibit Rev binding (inhibitory at any concentration tested)” value (shortened to “ability to inhibit Rev binding”) [2] was “no”.
For `CC1(C)S[C@@H]2[C@H](NC(=O)C(C(=O)O)c3ccccc3)C(=O)N2[C@H]1C(=O)O` (stereo partly drawn) [carbenicilin], the “ability to inhibit Rev binding” value [2] was “no”.
With `O=C(N[C@H](CO)[C@H](O)c1ccc([N+](=O)[O-])cc1)C(Cl)Cl` [chloramphenicol] the “ability to inhibit Rev binding” value [2] was “no”.
In the case of `CCC[C@@H]1C[C@@H](C(=O)N[C@@H]([C@H]2O[C@H](SC)[C@H](O)[C@@H](O)[C@H]2O)[C@H](C)Cl)N(C)C1` [clindamycin A], the “ability to inhibit Rev binding” value [2] is reported as “no”.
For `CN[C@@H]1[C@H](O[C@H]2[C@H](O[C@H]3[C@H](O)[C@@H](O)[C@H](NC(=N)N)[C@@H](O)[C@@H]3NC(=N)N)O[C@@H](C)[C@]2(O)CO)O[C@@H](CO)[C@H](O)[C@H]1O` [dihydrostreptomycin], the “ability to inhibit Rev binding” value [2] was “no inhibitory activity at any concentration tested”.
For `Cn1cc(NC(=O)c2cc(NC(=O)c3cc(NC=O)cn3C)cn2C)cc1C(=O)NCCC(=N)N` [distamycin A], the “ability to inhibit Rev binding” value [2] was “no”.
In the case of `CC[C@H]1OC(=O)[C@H](C)[C@@H](O[C@H]2C[C@@](C)(OC)[C@@H](O)[C@H](C)O2)[C@H](C)[C@@H](O[C@@H]2O[C@H](C)C[C@H](N(C)C)[C@H]2O)[C@](C)(O)C[C@@H](C)C(=O)[C@H](C)[C@@H](O)[C@]1(C)O` [erythromycin], the “ability to inhibit Rev binding” value [2] is reported as “no”.
In the case of `CN[C@H]1C[C@@H](N)[C@H](O)[C@@H](O[C@@H]2O[C@H](CO)[C@H](O)[C@@H]3OC4(O[C@H]23)O[C@H]([C@@H](N)CO)[C@H](O)[C@H](O)[C@H]4O)[C@@H]1O` (stereo partly drawn) [hygromyoin B, hygromycin B], the “ability to inhibit Rev binding” value [2] is reported as “no inhibitory activity at any concentration tested”.
In the case of `NC[C@H]1O[C@H](O[C@H]2[C@H](O)[C@@H](O[C@H]3O[C@H](CO)[C@@H](O)[C@H](N)[C@H]3O)[C@H](N)C[C@@H]2N)[C@H](N)[C@@H](O)[C@@H]1O` [kanamycin B], the “concentration at which inhibitory” value ([2]; 67-nt RNA probe) is reported as 100 μm and the “inhibiting the binding of Rev to the RRE” value [2] is reported as “effective”.
For `C[C@H]1O[C@H](O[C@H]2[C@H](O)[C@@H](O)[C@@H](O)[C@H](O)[C@@H]2O)[C@@H](N)C[C@@H]1NC(=N)C(=O)O` [kasugamycin], the “ability to inhibit Rev binding” value [2] was “no inhibitory activity at any concentration tested”.
For `CCC[C@@H]1C[C@@H](C(=O)N[C@@H]([C@H]2O[C@H](SC)[C@H](O)[C@@H](O)[C@H]2O)[C@@H](C)O)N(C)C1` [lincomycin], the “ability to inhibit Rev binding” value [2] was “no”.
With `NC[C@@H]1O[C@H](O[C@H]2[C@@H](O)[C@H](O[C@@H]3[C@@H](O)[C@H](N)C[C@H](N)[C@H]3O[C@H]3O[C@H](CO)[C@@H](O)C[C@H]3N)O[C@@H]2CO)[C@H](N)[C@@H](O)[C@@H]1O[C@H]1O[C@H](CO)[C@@H](O)[C@H](O)[C@@H]1O` [lividomycin A] the “ability to inhibit Rev binding” value [2] was “significant inhibitory ability”, the “concentration that achieves inhibition of Rev binding” value ([2]; 67-nt RNA probe, neomycin B: complete inhibition) was 10 µM and the “inhibiting the binding of Rev to the RRE” value [2] was “exceptional inhibitory potential”.
`NC[C@H]1O[C@H](O[C@H]2[C@H](O)[C@@H](O)[C@H](N)C[C@@H]2N)[C@H](N)[C@@H](O)[C@@H]1O` [neamine] was tested, and the “concentration at which inhibitory” value ([2]; 67-nt RNA probe) was 100 μm and the “inhibiting the binding of Rev to the RRE” value [2] was “effective”.
With `NC[C@@H]1O[C@H](O[C@H]2[C@@H](O)[C@H](O[C@@H]3[C@@H](O)[C@H](N)C[C@H](N)[C@H]3O[C@H]3O[C@H](CO)[C@@H](O)[C@H](O)[C@H]3N)O[C@@H]2CO)[C@H](N)[C@@H](O)[C@@H]1O` [paromomycin] the “ability to inhibit Rev binding” value [2] was “no inhibitory activity at any concentration tested; also recorded: completely inactive”.
`NC[C@H]1O[C@H](O[C@H]2[C@H](O[C@@H]3O[C@H](CO)[C@@H](O)[C@H]3O)[C@@H](O)[C@H](N)C[C@@H]2N)[C@H](N)[C@@H](O)[C@@H]1O` [ribostamycin] was tested, and the “concentration at which inhibitory” value ([2]; 67-nt RNA probe) was 100 μm and the “inhibiting the binding of Rev to the RRE” value [2] was “effective”.
`CN[C@@H]1[C@@H](O)[C@@H](O[C@@H]2[C@@H](O)[C@H](O[C@H]3OC(CN)=CC[C@H]3N)[C@@H](N)C[C@H]2N)OC[C@]1(C)O` [sisomicin] was tested, and the “concentration at which inhibitory” value ([2]; 67-nt RNA probe) was 100 μm and the “inhibiting the binding of Rev to the RRE” value [2] was “effective”.
`CN[C@@H]1[C@H](O)[C@H](NC)[C@H]2O[C@@]3(O)C(=O)C[C@@H](C)O[C@H]3O[C@@H]2[C@H]1O` [specitinomycin] was tested, and the “ability to inhibit Rev binding” value [2] was “no inhibitory activity at any concentration tested” and the “ability to inhibit Rev binding” value ([2]; listed as spectinoymycin) was “inactive”.
`[H]/N=C(/N)N[C@H]1[C@H](O)[C@@H](O)[C@H](O[C@@H]2O[C@@H](C)[C@](O)(C=O)[C@H]2O[C@@H]2O[C@@H](CO)[C@H](O)[C@@H](O)[C@@H]2NC)[C@@H](N/C(N)=N\[H])[C@@H]1O` [stretomycin, streptomycin] was tested, and the “ability to inhibit Rev binding” value [2] was “no inhibitory activity at any concentration tested” and the “ability to inhibit Rev binding” value ([2]; listed as streptomycin) was “inactive”.
`CN(C)[C@@H]1C(=O)C(C(N)=O)=C(O)[C@@]2(O)C(=O)C3=C(O)c4c(O)cccc4[C@@](C)(O)[C@H]3C[C@@H]12` [tetracycline] was tested, and the “ability to inhibit Rev binding” value [2] was “no”.
In the case of `NCCC[C@H](N)CC(=O)N[C@H]1CNC(=O)[C@H]([C@H]2C[C@H](O)NC(N)=N2)NC(=O)/C(=C/NC(N)=O)NC(=O)[C@H](CO)NC(=O)[C@H](CO)NC1=O` [viomycin] (β3hOrn-[Dap]SS[ΔAla(Z-3-ureido)][X1]; lactam 1-C), the “ability to inhibit Rev binding” value [2] is reported as “no”.
With butirosin the “ability to inhibit Rev binding” value [2] was “no inhibitory activity at any concentration tested”.
In the case of capreomycin, the “ability to inhibit Rev binding” value [2] is reported as “no”.
With chromomycin A the “ability to inhibit Rev binding” value [2] was “no”.
gentamicin C was tested, and the “concentration at which inhibitory” value ([2]; 67-nt RNA probe) was 100 μm and the “inhibiting the binding of Rev to the RRE” value [2] was “effective”.
In the case of olivomycin, the “ability to inhibit Rev binding” value [2] is reported as “no”.
In the case of thiostreption, the “ability to inhibit Rev binding” value [2] is reported as “no”.
For tunicamycin, the “ability to inhibit Rev binding” value [2] was “no”.
In the case of vineomycin, the “ability to inhibit Rev binding” value [2] is reported as “no”.
